Entries after “also recorded” stand apart in the source; their conditions may differ.
Legend:
[1] = test system: REN 50 cells; assay: Effectiveness experiment: REN 50 renal tumors implanted in mice (tumor volume/weight, CD31 vascular density, necrosis); format: in vivo; conditions: for vascular density / tumor vasculature (anti-CD31 immunohistochemistry) / tumor weight and volume / percentage of necrosis: REN 50 tumors; for vascular density / tumor vasculature (anti-CD31 immunohistochemistry) / percentage of necrosis: compared to the control group; for vascular density / tumor vasculature (anti-CD31 immunohistochemistry): Figures 5 and 6; for tumor weight and volume: continuous administration; for percentage of necrosis: hematoxylin-eosin sections, Figure 7
Method: An effectiveness experiment was performed according to the following scheme: tumors of about 2 mm^3 size were implanted in mice, and the tumors were allowed to develop for 20 days (to a size of about 750 mm^3). The time from tumor development to death was measured as the anti-angiogenic response.
7 mice were implanted per treatment group. REN 50 cells were implanted. Treatment started when mice developed tumors with a volume tumor of about 750 mm^3, and lasted for three weeks. Table 2. Treatment groups
The inventors then analyzed whether these inhibitors produced any effect at the level of tumor vasculature by conducting in immunohistochemistry, using an anti-CD31 antibody as a marker of endothelial cells.
Hematoxylin-eosin stained paraffin sections of tumors obtained from mice from the different treatment groups were analyzed in order to evaluate the degree of necrosis.

[2] = test system: primary tumor REN 28; assay: Long-term survival / anti-angiogenic resistance experiment: tumors from primary tumor REN 28 in mice; format: in vivo
Source text: The inventors assessed next the effect of therapy with PD-ECGF inhibitors in a long term survival experiment, wherein the tumors are able to regrow (resistance) and wherein PD-ECGF overexpression has been observed.
A survival experiment was followed, wherein the drugs previously tested on the primary tumor from REN 28 were continuously administered. This tumor line was selected because the inventors this tumor is able to generate an anti-angiogenic resistance phenotype with after treatment with bevacizumab and DC101.
Again, tumors of about 2 mm^3 size were implanted in mice, and the tumors were allowed to develop for 30 days (with a size of about 1,000 mm^3). The time from tumor development to death was measured as the anti-angiogenic resistance.
Tumors were measured and weighted; samples were collected for further processing. Treatments were stopped or changed on day 15. Table 3. Treatment groups.
Several treatment strategies were followed in anti-VEGFR2 resistant tumors: • 1. stop the anti-VEGFR2 (DC101) treatment just when the tumors begin to becomes resistant, and verify if said tumors are able to regrow with or without vasculature (represented as "DC101→R→OFF" treatment group), • 2. change the VEGFR2 inhibition therapy by the inhibition of another pathway (PD-ECGF) (represented as "DC101→R→AEAC" treatment group), • 3. combine the VEGFR2-inhibition therapy (DC101) and the PD-ECGF-inhibition therapy ([…]) (represented as "DC101→R→DC101 1 + AEAC" treatment group).

[3] = AEAC added to DC101 after development of resistance (DC101→R→DC101 + AEAC)
[4] = therapy changed from DC101 to AEAC at onset of resistance (DC101→R→AEAC)

| Compound | vascular density / tumor vasculature (anti-CD31 immunohistochemistry) [1] | tumor weight and volume [1] | percentage of necrosis [1] | number of vessels (labeled with anti-CD31 antibody) ([1]; after 21 days of treatment, Figure 6) | number of vessels / vascular density [2, 3] | toxicity to animals [2, 3] | tumor size / tumor volume [2, 3] | average and total survival ([2]; REN 28, continuous treatment, compared to control mice, Figure 8) | survival [2, 4] | time of tumor progression [2, 4] | number of vessels (labeled with anti-CD31 antibody) ([1]; after 15 days of treatment, Figure 5) |
| --- | --- | --- | --- | --- | --- | --- | --- | --- | --- | --- | --- |
| NCCNc1[nH]c(=O)[nH]c(=O)c1Cl [AEAC, 6-(2-aminoethyl)amino-5-chlorouracil] | decreased tumor vasculature | decreased tumor weight and volume | increased tumor necrosis | decrease in the number of vessels | decreased vascular density | toxic | small tumoral volume; also recorded: sustained effect on tumor volume reduction | increased average and total survival | increased survival | delayed the time of tumor progression | – |
| Oc1ncnc2c1ncn2[C@@H]1O[C@H](COC(c2ccccc2)(c2ccccc2)c2ccccc2)[C@@H](O)[C@H]1O [KIN 59, 5'-O-trityl-inosine] | decreased tumor vasculature | decreased tumor weight and volume | increased tumor necrosis | – | – | – | – | – | – | – | decrease in the number of vessels |

— patent publication EP3067369A1, “Methods and compositions for the treatment of anti-angiogenic resistant cancer” (Institut d'Investigació Biomèdica de Bellvitge (IDIBELL), priority 2015, dated 2016)
